Key:
[1] = test system: Mice (C57/B6J, 8 weeks old male) fed with high-fat food
Excerpt: Mice (C57/B6J, 8 weeks old male) were divided into 4 groups (5 animals each), and the first group (DB) was freely fed with ordinary food (CertifiedDiet “MF” manufactured by Oriental Yeast Co., ltd.). The second group (HFD) was freely fed with high-fat food (High Fat Diet 32, manufactured by CLEA Japan, Inc.), […].
When the mouse was 20 weeks old, the body weight, the liver weight, the serum aspartate aminotransferase (AST), the alanine aminotransferase (ALT), the serum triglyceride (TG), the free fatty acid value (FFA) and the total cholesterol value (T-cho) were measured.

[2] = test system: subjects who had NAFLD in 31 IU/L or more of ALT
[3] = HFD6 (6 mg/kg/day) and HFD60 (60 mg/kg/day) groups in comparison to the HFD group, 20 weeks old

## N[C@@H](CCC(=O)N[C@@H](CS)C(=O)NCC(=O)O)C(=O)O [glutathione]
[1]; 6 versus 60 mg/kg/day glutathione
  serum AST, ALT, TG, FFA, T-cho: comparison of HFD6 group and HFD60 group: decrease dependently on the concentration
[1]; [3]
  serum ALT: significant decrease
  serum AST: significant decrease
  serum FFA (free fatty acid value): significant decrease
  serum T-cho (total cholesterol value): significant decrease
  serum TG (triglyceride value): significant decrease
[1]; concluded from liver weight and liver/body weight ratio
  deposition of fat on the liver by high-fat food: suppressed
[1]; high-fat food mice, glutathione 6 and 60 mg/kg/day in water, 20 weeks old
  liver weight: decreased dependently on the concentration
[1]; high-fat food mice, glutathione 6 or 60 mg/kg/day in water
  body weight: decrease of the body weight was recognized
[2]; Case IDs 1 to 9 (group affected), at least one week after initiation of administration
  improvement of ALT after the administration in comparison to ALT before the administration (0 wk): ≥ 20%
[2]; after treatment, oral glutathione 300 mg per day, one subject (Case ID) per table row
  FibroScan (after treatment) CAP: 280 dBe

— patent US20220072083A1, “COMPOSITION FOR IMPROVING OR PREVENTING NONALCOHOLIC FATTY LIVER” (KOHJIN LIFE SCIENCES CO., LTD., priority 2015, published 2022)
